Data on four compounds can be found in PMC11079024, “Identification of a family of species-selective complex I inhibitors as potential anthelmintics” (Nature Communications, 2024).

Where “and” joins values, the source holds several entries; their conditions need not be identical. Equal values may be shown once. Read-outs that look alike come from different tables or passages of the source.

Assay [1] addresses C. elegans (N2) complex I (NADH:ubiquinone oxidoreductase) (Caenorhabditis elegans, UniProt P24887+Q93873+Q94360). Description: biochemical. Type of assay: biochemical. The note with it: for Log IC50 C. elegans complex I: log10 of IC50 in µM, C. elegans mitochondria; for activity at 0.0001 µM / activity at 0.0005 µM / activity at 0.001 µM / activity at 0.0025 µM / activity at 0.005 µM / activity at 0.013 µM / activity at 0.025 µM / activity at 0.063 µM / activity at 0.125 µM / activity at 0.313 µM / activity at 0.625 µM / activity at 1.5 µM / activity at 3 µM / activity at 15 µM / activity at 37.5 µM / activity at 75 µM: read-out: C. elegans mitochondrial complex I activity. In a few lines: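 Compounds were tested against freeze-thawed isolated mitochondria (0.2 mg/mL protein). NADH:decylubiquinone activity was monitored via DCIP absorbance at 600 nm, and the initial linear slope was normalised to solvent controls.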

A further assay concerns L1 wild-type C. elegans. Description: microbe, parasite or virus in culture. The note with it: Caenorhabditis elegans, read-out: C. elegans KCN Survival Assay LC50, estimated from fitted dose-response curves; mean of at least two biological replicates.
Where [2] appears, read: in vitro complex I dose response on C. elegans mitochondria, average of at least two biological replicates, fit in R (DRC), read-out: IC50 C. elegans complex I.
Setting [3] is: wild-type C. elegans mitochondria, read-out: C. elegans Complex I IC50.

Sequence of C. elegans (N2) complex I (NADH:ubiquinone oxidoreductase) (Q94360 17-199): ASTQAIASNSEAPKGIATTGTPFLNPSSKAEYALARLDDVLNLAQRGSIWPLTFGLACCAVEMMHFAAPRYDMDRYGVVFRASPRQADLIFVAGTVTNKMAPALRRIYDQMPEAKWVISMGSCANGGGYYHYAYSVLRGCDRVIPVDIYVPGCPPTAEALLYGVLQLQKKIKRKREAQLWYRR
Sequence of C. elegans (N2) complex I (NADH:ubiquinone oxidoreductase) (P24887 whole entry): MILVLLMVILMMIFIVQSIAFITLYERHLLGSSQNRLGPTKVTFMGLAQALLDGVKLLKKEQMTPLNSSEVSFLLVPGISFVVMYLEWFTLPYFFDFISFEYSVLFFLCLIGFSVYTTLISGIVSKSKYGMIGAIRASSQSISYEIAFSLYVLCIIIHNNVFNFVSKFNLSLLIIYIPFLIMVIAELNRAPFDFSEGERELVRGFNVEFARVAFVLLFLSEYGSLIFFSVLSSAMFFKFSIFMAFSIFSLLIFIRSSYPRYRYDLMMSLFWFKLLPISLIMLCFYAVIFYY
Sequence of C. elegans (N2) complex I (NADH:ubiquinone oxidoreductase) (Q93873 31-482): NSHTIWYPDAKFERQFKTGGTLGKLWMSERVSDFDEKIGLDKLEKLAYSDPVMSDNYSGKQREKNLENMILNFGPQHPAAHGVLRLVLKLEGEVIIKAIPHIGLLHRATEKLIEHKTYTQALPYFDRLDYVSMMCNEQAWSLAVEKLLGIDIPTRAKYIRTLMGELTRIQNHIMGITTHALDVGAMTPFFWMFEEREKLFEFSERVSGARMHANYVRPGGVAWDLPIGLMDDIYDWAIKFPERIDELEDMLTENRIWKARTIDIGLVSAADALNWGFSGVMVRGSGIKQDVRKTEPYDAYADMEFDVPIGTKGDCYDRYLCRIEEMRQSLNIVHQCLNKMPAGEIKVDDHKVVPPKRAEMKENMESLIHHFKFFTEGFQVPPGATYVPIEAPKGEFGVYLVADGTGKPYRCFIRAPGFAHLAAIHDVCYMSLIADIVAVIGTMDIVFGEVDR

For orientation: IC50 means the concentration needed to halve the response being measured. In general, LC50 refers to the concentration lethal to half of the exposed cells or organisms. Regarding `Brc1ccc(Cn2cnc3ccccc32)cc1` [Compound 5542661], the half-inhibitory concentration (IC50) was 0.53 µM in assay [1] (setting [2]); 0.53 µM in assay [1] (wild-type (N2) mitochondria, read-out: C. elegans Complex I IC50); 0.53 µM in assay [1] (wild-type C. elegans mitochondria, estimated from fitted dose-response curves, read-out: C. elegans Complex I IC50). Further, the “Log IC50 C. elegans complex I” value in assay [1] is listed as -0.28 µM. Further, the LC50 in the assay with L1 wild-type C. elegans is 7.75 µM.
For the compound `Cc1nc2ccccc2n1CCOc1ccccc1` [Compound 5550112], in assay [1], the activity at 0.0001 µM was determined as 88.8%, the activity at 0.0005 µM is 84.9%, the activity at 0.001 µM was 88.8% and the activity at 0.0025 µM was found to be 93.8%. In addition, in assay [1], the activity at 0.005 µM turned out to be 86.7%, the activity at 0.013 µM was found to be 87.2%, the activity at 0.025 µM was 83.3% and the activity at 0.063 µM amounted to 78.1%. Further, in assay [1], the activity at 0.125 µM was found to be 80.5%, the activity at 0.313 µM was 78%, the activity at 0.625 µM is 89.4% and the activity at 1.5 µM came to 71.3%. Also, in assay [1], the activity at 3 µM came out at 60.5%, the activity at 15 µM turned out to be 24.9%, the activity at 37.5 µM was 11.1% and the activity at 75 µM is 5.83%. For the same compound, the “Log IC50 C. elegans complex I” value in assay [1] is 0.76 µM. Further, the half-maximal inhibitory concentration (IC50) in assay [1] (setting [2]) was found to be 5.79 µM. Besides, the concentration for half-maximal inhibition (IC50) in assay [1] (setting [3]) worked out at 5.79 µM. Besides, the median lethal concentration (LC50) in the assay on L1 wild-type C. elegans was 32.9 µM.
`Cc1nc2ccccc2n1CCOc1ccccc1Cl` [Compound 5561642]: in assay [1], the activity at 0.0001 µM was determined as 91.5%, the activity at 0.0005 µM was 94%, the activity at 0.001 µM is 89.2% and the activity at 0.0025 µM turned out to be 95%. Besides, in assay [1], the activity at 0.005 µM was 93.1%, the activity at 0.013 µM amounted to 84.7%, the activity at 0.025 µM was found to be 83.1% and the activity at 0.063 µM was 81.1%. Further, in assay [1], the activity at 0.125 µM was determined as 84.1%, the activity at 0.313 µM was found to be 65.5%, the activity at 0.625 µM is 71.7% and the activity at 1.5 µM worked out at 51.9%. In assay [1], the activity at 3 µM is 40.7%, the activity at 15 µM is 12.4%, the activity at 37.5 µM came to 4.46% and the activity at 75 µM turned out to be 4.41%. In assay [1], the “Log IC50 C. elegans complex I” value was 0.37 µM. For the same compound, in assay [1] (setting [2]), the IC50 stood at 2.35 µM. For the same compound, the IC50 in assay [1] (setting [3]) came out at 2.35 µM. Further, the LC50 with L1 wild-type C. elegans was 11.7 µM.
As for `COC(=O)Nc1nc2ccc(C(=O)c3ccccc3)cc2[nH]1` [mebendazole, reference compound], in assay [1] (0.125 µM, wild-type C. elegans mitochondria, mean of replicates, read-out: percent (%) in vitro complex I activity relative to solvent control), the remaining activity at 0.125 µM came out at 104%. In addition, the “percent (%) in vitro complex I activity relative to solvent control” value in assay [1] (0.125 µM, wild-type C. elegans mitochondria, single replicate) was 95.514% and 94.187% and 106.525% and 121.019%; in assay [1] (0.313 µM, wild-type C. elegans mitochondria, single replicate), 96.314% and 108.975% and 110.715%; in assay [1] (0.625 µM, wild-type C. elegans mitochondria, single replicate), 110.023% and 108.944%; in assay [1] (1.5 µM, wild-type C. elegans mitochondria, single replicate) it was 91.749% and 101.813% and 107.753%; in assay [1] (3 µM, wild-type C. elegans mitochondria, single replicate), 97.513% and 112.361% and 102.837%; in assay [1] (15 µM, wild-type C. elegans mitochondria, single replicate), 94.944% and 106.604% and 105.394%. Besides, the “percent (%) in vitro complex I activity relative to solvent control” value is 90.732% and 104.066% and 100.084% in assay [1] (37.5 µM, wild-type C. elegans mitochondria, single replicate); 90.802% and 93.867% and 91.631% in assay [1] (75 µM, wild-type C. elegans mitochondria, single replicate). The remaining activity at 0.313 µM in assay [1] (0.313 µM, wild-type C. elegans mitochondria, mean of replicates, read-out: percent (%) in vitro complex I activity relative to solvent control) came to 102%; in assay [1] (0.313 µM, wild-type C. elegans mitochondria, single replicate, read-out: percent (%) in vitro complex I activity relative to solvent control), 92.7%. Further, the remaining activity at 0.625 µM amounted to 105% in assay [1] (0.625 µM, wild-type C. elegans mitochondria, mean of replicates, read-out: percent (%) in vitro complex I activity relative to solvent control) and 100% in assay [1] (0.625 µM, wild-type C. elegans mitochondria, single replicate, read-out: percent (%) in vitro complex I activity relative to solvent control). In addition, the remaining activity at 1.5 µM came out at 101% in assay [1] (1.5 µM, wild-type C. elegans mitochondria, mean of replicates, read-out: percent (%) in vitro complex I activity relative to solvent control) and 101% in assay [1] (1.5 µM, wild-type C. elegans mitochondria, single replicate, read-out: percent (%) in vitro complex I activity relative to solvent control). The remaining activity at 3 µM in assay [1] (3 µM, wild-type C. elegans mitochondria, mean of replicates, read-out: percent (%) in vitro complex I activity relative to solvent control) came to 104%; in assay [1] (3 µM, wild-type C. elegans mitochondria, single replicate, read-out: percent (%) in vitro complex I activity relative to solvent control), 104%. Also, the remaining activity at 15 µM in assay [1] (15 µM, wild-type C. elegans mitochondria, mean of replicates, read-out: percent (%) in vitro complex I activity relative to solvent control) stood at 102%; in assay [1] (15 µM, wild-type C. elegans mitochondria, single replicate, read-out: percent (%) in vitro complex I activity relative to solvent control), 102%. Also, the remaining activity at 37.5 µM came to 97.7% in assay [1] (37.5 µM, wild-type C. elegans mitochondria, mean of replicates, read-out: percent (%) in vitro complex I activity relative to solvent control) and 95.9% in assay [1] (37.5 µM, wild-type C. elegans mitochondria, single replicate, read-out: percent (%) in vitro complex I activity relative to solvent control). The remaining activity at 75 µM in assay [1] (75 µM, wild-type C. elegans mitochondria, mean of replicates, read-out: percent (%) in vitro complex I activity relative to solvent control) came out at 91.3%; in assay [1] (75 µM, wild-type C. elegans mitochondria, single replicate, read-out: percent (%) in vitro complex I activity relative to solvent control) it was 88.8%.
